Here are results for 3 compounds from patent US7893279B2, “Cyclohexanecarboxylic acid compound” (Daiichi Pharmaceutical Co., Ltd., priority 2003, dated 2011).

A short description of series [1]: Moisture adsorption/desorption (microbalance, automatic vapor adsorption apparatus). The format is physicochemical. As to conditions: for Moisture adsorption/desorption: change in weight / stability: crystals about 20 mg, relative humidities 10 to 90% RH. As for the experimental part: Compound (1), compound (a), and salts of compound (a) prepared in Example 1, Referential Example 1, and Comparative Example 1, respectively, were evaluated in terms of moisture adsorption/desorption. Specifically, the amount of water adsorbed on or desorbed from each compound was determined through subjecting crystals (about 20 mg) of each compound to a microbalance (automatic vapor adsorption apparatus) and measuring time-elapsed change in weight at relative humidities (RH) ranging from 10 to 90%.

The nature of series [2]: Solubility to water (37° C.). As to conditions: for Water-solubility (in words) / solubility: 37° C., water; for solubility: Table 1. It is filed as physicochemical.
The next series addresses VLA-4 (Homo sapiens, UniProt P05556+P13612). The experiment in a line: VLA-4 inhibitory activity. It is filed as binding. Particulars: compared with compound (a).

Each structure is given as a SMILES string. In brackets after ≈: the same amount, converted by molar mass.

VLA-4, sequence (P13612 34-1032): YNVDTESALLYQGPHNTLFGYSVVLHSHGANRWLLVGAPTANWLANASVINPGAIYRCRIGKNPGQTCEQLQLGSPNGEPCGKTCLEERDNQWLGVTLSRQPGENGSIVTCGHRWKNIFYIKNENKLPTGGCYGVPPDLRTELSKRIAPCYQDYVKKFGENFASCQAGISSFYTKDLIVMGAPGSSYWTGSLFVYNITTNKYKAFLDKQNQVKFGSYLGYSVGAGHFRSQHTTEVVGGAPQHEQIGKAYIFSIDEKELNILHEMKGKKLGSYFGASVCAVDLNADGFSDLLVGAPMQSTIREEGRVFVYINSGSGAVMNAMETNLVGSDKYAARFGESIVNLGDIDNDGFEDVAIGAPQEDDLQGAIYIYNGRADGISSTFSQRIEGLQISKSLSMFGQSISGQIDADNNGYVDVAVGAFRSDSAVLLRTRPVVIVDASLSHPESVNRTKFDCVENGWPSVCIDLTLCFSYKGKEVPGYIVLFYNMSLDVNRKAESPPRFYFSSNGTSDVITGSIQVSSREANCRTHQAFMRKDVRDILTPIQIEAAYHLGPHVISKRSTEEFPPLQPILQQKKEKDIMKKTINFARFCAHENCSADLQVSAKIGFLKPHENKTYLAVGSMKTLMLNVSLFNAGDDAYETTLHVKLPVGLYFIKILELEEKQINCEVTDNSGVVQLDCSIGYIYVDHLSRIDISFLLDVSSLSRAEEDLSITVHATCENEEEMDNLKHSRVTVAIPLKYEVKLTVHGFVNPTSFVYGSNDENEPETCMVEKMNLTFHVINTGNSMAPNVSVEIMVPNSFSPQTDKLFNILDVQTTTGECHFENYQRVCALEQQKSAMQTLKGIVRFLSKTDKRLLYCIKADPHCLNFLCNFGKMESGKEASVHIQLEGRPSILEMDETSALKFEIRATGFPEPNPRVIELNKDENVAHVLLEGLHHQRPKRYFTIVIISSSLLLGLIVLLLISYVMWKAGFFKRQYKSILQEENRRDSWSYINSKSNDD
VLA-4, sequence (P05556 21-798): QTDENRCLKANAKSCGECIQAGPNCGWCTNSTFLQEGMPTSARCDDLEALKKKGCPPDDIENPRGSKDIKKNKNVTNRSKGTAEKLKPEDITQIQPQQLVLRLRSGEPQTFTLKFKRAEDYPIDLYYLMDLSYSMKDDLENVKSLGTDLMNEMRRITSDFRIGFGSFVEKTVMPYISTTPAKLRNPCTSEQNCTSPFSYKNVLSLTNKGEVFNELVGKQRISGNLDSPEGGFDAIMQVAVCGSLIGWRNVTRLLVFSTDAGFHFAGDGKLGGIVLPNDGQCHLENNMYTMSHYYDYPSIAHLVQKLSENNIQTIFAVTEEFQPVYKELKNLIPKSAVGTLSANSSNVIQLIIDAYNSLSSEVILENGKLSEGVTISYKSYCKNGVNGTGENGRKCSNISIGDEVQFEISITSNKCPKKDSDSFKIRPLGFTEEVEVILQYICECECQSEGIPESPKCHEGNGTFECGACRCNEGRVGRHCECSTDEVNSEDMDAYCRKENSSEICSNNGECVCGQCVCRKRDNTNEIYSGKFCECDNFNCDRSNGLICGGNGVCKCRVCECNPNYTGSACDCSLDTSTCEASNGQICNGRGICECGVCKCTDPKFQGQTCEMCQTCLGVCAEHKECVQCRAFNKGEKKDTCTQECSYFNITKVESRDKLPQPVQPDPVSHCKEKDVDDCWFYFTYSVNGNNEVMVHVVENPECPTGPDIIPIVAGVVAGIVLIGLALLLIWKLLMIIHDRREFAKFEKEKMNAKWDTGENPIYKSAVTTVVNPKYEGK

As to `CO[C@H]1C[C@@H](CO[C@H]2CC[C@H](C(=O)[O-])CC2)N(C(=O)Cc2cc(Cl)c(NC(=O)c3cn(C)c4ccccc34)cc2Cl)C1.[Na+]` [Compound (1), sodium trans-4-[1-[2,5-dichloro-4-[(1-methyl-1H-3-indolylcarbonyl)amino]phenylacetyl]-(4S)-methoxy-(2S)-pyrrolidinylmethoxy]cyclohexanecarboxylate pentahydrate], the “Moisture adsorption/desorption: change in weight / stability” value in series [1] is reported as “no change in weight under typical humidity conditions”. In series [2], the “Water-solubility (in words)” value is listed as “very high water-solubility” and the solubility (usually the dissolved amount per volume that the medium holds) was above 1000 µg/mL. Moreover, the VLA-4 inhibitory activity result at VLA-4 was “comparable to that of compound (a)”.

As for `CO[C@H]1C[C@@H](CO[C@H]2CC[C@H](C(=O)O)CC2)N(C(=O)Cc2cc(Cl)c(NC(=O)c3cn(C)c4ccccc34)cc2Cl)C1` [Compound (a), trans-4-[1-[2,5-dichloro-4-[(1-methyl-1H-3-indolylcarbonyl)amino]phenylacetyl]-(4S)-methoxy-(2S)-pyrrolidinylmethoxy]cyclohexanecarboxylic acid, reference compound], the “Moisture adsorption/desorption: change in weight / stability” value in series [1] is given as “change in weight at 40 to 60% RH”. Also, in series [2], the “Water-solubility (in words)” value was “considerably low water-solubility” and the concentration in solution (solubility) came to 0.653 µg/mL (≈ 1.06 µM).

As for `CO[C@H]1C[C@@H](CO[C@H]2CC[C@H](C(=O)[O-])CC2)N(C(=O)Cc2cc(Cl)c(NC(=O)c3cn(C)c4ccccc34)cc2Cl)C1.[Na+]` [Type-I], in series [1] (Type-I and Type-II crystals of compound (1), FIG. 5), the “Storage stability (moisture adsorption/desorption property) of crystal forms” value was “good storage stability”. Moreover, the “Water Solubility” value in series [2] (crystal forms of compound (1), manner similar to Test Example 2, Table 3) was above 1000 µg/mL.
